Results as given in patent US20220306695A1, “COMPSTATIN ANALOGUES AND THEIR MEDICAL USES” (priority 2019, published 2022).
Starred links: 1 amine or outer side, 2 acyl side, 3 side chain; linkers in the order of their positions; H or OH if unused. Positions of bridges follow the written chain, without caps; N, C: chain ends. Non-standard residues stand in square brackets, D forms with d. Residues, ends and D or L forms follow the SMILES beside them. Groups on a side chain read outwards from the residue. *: point of attachment. Trp(1-Me) = Cn1cc(C[C@H](N)C(=O)O)c2ccccc21; C16 diacid = O=C(O)CCCCCCCCCCCCCCC(=O)*; γGlu = O=C(O)[C@H](CCC(=O)[*:2])N[*:1]; 1Nal = N[C@@H](Cc1cccc2ccccc12)C(=O)O; AEEA = NCCOCCOCC(=O)O; Sar = CNCC(=O)O

Columns and labels:
[1] = system: classical complement pathway; test: In vitro haemolysis assay (inhibition of classical complement pathway); type: cell-based, human; details: Table 3; human serum, sensitized sheep red blood cells; read-out: IC50[nM], in vitro analysis of inhibition of hemolysis
How it was run: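 Serially diluted compound (9 points) was preincubated 15 min at room temperature with diluted human serum, titrated per batch to give 70-90% maximal haemolysis, in Tris/casein buffer pH 7.4 with Mg2+/Ca2+. Antibody-sensitized sheep erythrocytes were then added for 30 min at 37° C, and the reaction was stopped with EDTA. Haemolysis was read at A405, with IC50 from 4PL fit.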

[2] = Solubility test at 10 mg/mL (visual inspection and light scattering); type: physicochemical; details: for Solubility, Condition 1 Acetate pH 4: 10 mg/mL compound in 100 mM acetate pH 4; for Solubility, Condition 2 Acetate pH 5: 10 mg/mL compound in 100 mM acetate pH 5; for Solubility, Condition 3 Phosphate pH 6: 10 mg/mL compound in 100 mM phosphate pH 6; for Solubility, Condition 4 Phosphate pH 7: 10 mg/mL compound in 100 mM phosphate pH 7; for Solubility, Condition 5 Phosphate pH 7.5: 10 mg/mL compound in 100 mM phosphate pH 7.5

| Structure (SMILES) | IC50 [1] [nM] | Solubility, Condition 1 Acetate pH 4 [2] | Solubility, Condition 2 Acetate pH 5 [2] | Solubility, Condition 3 Phosphate pH 6 [2] | Solubility, Condition 4 Phosphate pH 7 [2] | Solubility, Condition 5 Phosphate pH 7.5 [2] |
| --- | --- | --- | --- | --- | --- | --- |
| CC[C@H](C)[C@@H]1NC(=O)[C@@H](NC(=O)[C@H](Cc2ccc(O)cc2)NC(=O)[C@H](C)NC(=O)[C@H](CO)NC(=O)CNC(=O)[C@H](CCC(=O)O)NC(C)=O)CSSC[C@@H](C(=O)N(C)CC(=O)N[C@@H](CCC(=O)O)C(N)=O)NC(=O)[C@H](CCCCNC(=O)COCCOCCNC(=O)COCCOCCNC(=O)CC[C@H](NC(=O)CCCCCCCCCCCCCCC(=O)O)C(=O)O)NC(=O)[C@H](Cc2c[nH]cn2)NC(=O)[C@H](CCC(=O)O)NC(=O)CNC(=O)[C@H](Cc2c[nH]c3ccccc23)NC(=O)[C@H](CC(=O)O)NC(=O)[C@H](CCC(N)=O)NC(=O)[C@H](Cc2cn(C)c3ccccc23)NC1=O [Compound 103, Ac-EGSAYC(1)I[1-Me-Trp]QDWGEH-[K([15-carboxy-pentadecanoyl][γGlu][Peg3][Peg3])]-C(1)[Sar]E-NH2] (Ac-EGSAYCI[Trp(1-Me)]QDWGEHK([AEEA-AEEA-γGlu-C16 diacid])C[Sar]E-NH2; disulfide 6-16) | < 100 | − (denotes lack of solubility at the given condition, as UV absorbance at 340 nm exceeds 0.1 AU and/or it is visibly turbid or contains particles.) | + (denotes solubility at the given condition, as determined by UV absorbance being less than 0.1 AU at 340 nm and the sample being clear when manually inspected.) | + (denotes solubility at the given condition, as determined by UV absorbance being less than 0.1 AU at 340 nm and the sample being clear when manually inspected.) | + (denotes solubility at the given condition, as determined by UV absorbance being less than 0.1 AU at 340 nm and the sample being clear when manually inspected.) | + (denotes solubility at the given condition, as determined by UV absorbance being less than 0.1 AU at 340 nm and the sample being clear when manually inspected.) |
| CC[C@H](C)[C@@H]1NC(=O)[C@@H](NC(=O)[C@@H](NC(=O)[C@H](CCC(=O)O)NC(=O)[C@H](CO)NC(=O)[C@H](CCC(=O)O)NC(C)=O)[C@@H](C)CC)CSSC[C@@H](C(=O)N[C@@H](CCC(=O)O)C(=O)NCC(=O)N[C@@H](CCC(=O)O)C(N)=O)NC(=O)[C@H](CCCNC(=N)N)NC(=O)[C@H](Cc2c[nH]cn2)NC(=O)[C@H](CCC(=O)O)NC(=O)CNC(=O)[C@H](Cc2c[nH]c3ccccc23)NC(=O)[C@H](CC(=O)O)NC(=O)[C@H](CCC(N)=O)NC(=O)[C@H](Cc2c[nH]c3ccccc23)NC1=O [Compound 36] (Ac-ESEICIWQDWGEHRCEGE-NH2; disulfide 5-15) | < 250 | − (denotes lack of solubility at the given condition, as UV absorbance at 340 nm exceeds 0.1 AU and/or it is visibly turbid or contains particles.) | − (denotes lack of solubility at the given condition, as UV absorbance at 340 nm exceeds 0.1 AU and/or it is visibly turbid or contains particles.) | − (denotes lack of solubility at the given condition, as UV absorbance at 340 nm exceeds 0.1 AU and/or it is visibly turbid or contains particles.) | + (denotes solubility at the given condition, as determined by UV absorbance being less than 0.1 AU at 340 nm and the sample being clear when manually inspected.) | + (denotes solubility at the given condition, as determined by UV absorbance being less than 0.1 AU at 340 nm and the sample being clear when manually inspected.) |
| CC[C@H](C)[C@@H]1NC(=O)[C@@H](NC(=O)[C@H](Cc2ccccc2)NC(=O)[C@H](CCC(=O)O)NC(C)=O)CSSC[C@@H](C(=O)N(C)CC(=O)N[C@@H](CCC(=O)O)C(=O)N[C@@H](C)C(N)=O)NC(=O)[C@H](CCCNC(=N)N)NC(=O)[C@H](Cc2c[nH]cn2)NC(=O)[C@H](CCC(=O)O)NC(=O)CNC(=O)[C@H](Cc2c[nH]c3ccccc23)NC(=O)[C@H](CC(=O)O)NC(=O)[C@H](CCC(N)=O)NC(=O)[C@H](Cc2cn(C)c3ccccc23)NC1=O [Compound 80] (Ac-EFCI[Trp(1-Me)]QDWGEHRC[Sar]EA-NH2; disulfide 3-13) | < 100 | − (denotes lack of solubility at the given condition, as UV absorbance at 340 nm exceeds 0.1 AU and/or it is visibly turbid or contains particles.) | − (denotes lack of solubility at the given condition, as UV absorbance at 340 nm exceeds 0.1 AU and/or it is visibly turbid or contains particles.) | + (denotes solubility at the given condition, as determined by UV absorbance being less than 0.1 AU at 340 nm and the sample being clear when manually inspected.) | + (denotes solubility at the given condition, as determined by UV absorbance being less than 0.1 AU at 340 nm and the sample being clear when manually inspected.) | + (denotes solubility at the given condition, as determined by UV absorbance being less than 0.1 AU at 340 nm and the sample being clear when manually inspected.) |
| CC[C@H](C)[C@@H]1NC(=O)[C@@H](NC(=O)[C@H](Cc2ccccc2)NC(=O)[C@H](CCC(=O)O)NC(=O)[C@H](CO)NC(C)=O)CSSC[C@@H](C(=O)N[C@H](C(=O)NCC(=O)N[C@@H](C)C(=O)N[C@@H](CCC(=O)O)C(=O)N[C@@H](CO)C(N)=O)[C@@H](C)O)NC(=O)[C@H](CCCNC(=N)N)NC(=O)[C@H](Cc2c[nH]cn2)NC(=O)[C@H](CCC(=O)O)NC(=O)CNC(=O)[C@H](Cc2c[nH]c3ccccc23)NC(=O)[C@H](CC(=O)O)NC(=O)[C@H](CCC(N)=O)NC(=O)[C@H](Cc2cn(C)c3ccccc23)NC1=O [Compound 67] (Ac-SEFCI[Trp(1-Me)]QDWGEHRCTGAES-NH2; disulfide 4-14) | < 100 | − (denotes lack of solubility at the given condition, as UV absorbance at 340 nm exceeds 0.1 AU and/or it is visibly turbid or contains particles.) | − (denotes lack of solubility at the given condition, as UV absorbance at 340 nm exceeds 0.1 AU and/or it is visibly turbid or contains particles.) | + (denotes solubility at the given condition, as determined by UV absorbance being less than 0.1 AU at 340 nm and the sample being clear when manually inspected.) | + (denotes solubility at the given condition, as determined by UV absorbance being less than 0.1 AU at 340 nm and the sample being clear when manually inspected.) | + (denotes solubility at the given condition, as determined by UV absorbance being less than 0.1 AU at 340 nm and the sample being clear when manually inspected.) |
| CC[C@H](C)[C@@H]1NC(=O)[C@@H](NC(=O)[C@H](Cc2ccccc2)NC(=O)[C@H](CCC(=O)O)NC(=O)[C@H](CO)NC(C)=O)CSSC[C@@H](C(=O)N(C)CC(=O)N[C@@H](CCC(=O)O)C(N)=O)NC(=O)[C@H](CCCNC(=N)N)NC(=O)[C@H](Cc2c[nH]cn2)NC(=O)[C@H](CCC(=O)O)NC(=O)CNC(=O)[C@H](Cc2c[nH]c3ccccc23)NC(=O)[C@H](CC(=O)O)NC(=O)[C@H](CCC(N)=O)NC(=O)[C@H](Cc2cn(C)c3ccccc23)NC1=O [Compound 78] (Ac-SEFCI[Trp(1-Me)]QDWGEHRC[Sar]E-NH2; disulfide 4-14) | < 100 | − (denotes lack of solubility at the given condition, as UV absorbance at 340 nm exceeds 0.1 AU and/or it is visibly turbid or contains particles.) | − (denotes lack of solubility at the given condition, as UV absorbance at 340 nm exceeds 0.1 AU and/or it is visibly turbid or contains particles.) | + (denotes solubility at the given condition, as determined by UV absorbance being less than 0.1 AU at 340 nm and the sample being clear when manually inspected.) | + (denotes solubility at the given condition, as determined by UV absorbance being less than 0.1 AU at 340 nm and the sample being clear when manually inspected.) | + (denotes solubility at the given condition, as determined by UV absorbance being less than 0.1 AU at 340 nm and the sample being clear when manually inspected.) |
| CC[C@H](C)[C@@H]1NC(=O)[C@@H](NC(=O)[C@H](Cc2ccccc2)NC(C)=O)CSSC[C@@H](C(=O)N[C@H](C(=O)NCC(=O)N[C@@H](C)C(=O)N[C@@H](CCC(=O)O)C(=O)N[C@@H](CO)C(N)=O)[C@@H](C)O)NC(=O)[C@H](CCCNC(=N)N)NC(=O)[C@H](Cc2c[nH]cn2)NC(=O)[C@H](CCC(=O)O)NC(=O)CNC(=O)[C@H](Cc2c[nH]c3ccccc23)NC(=O)[C@H](CC(=O)O)NC(=O)[C@H](CCC(N)=O)NC(=O)[C@H](Cc2cccc3ccccc23)NC1=O [Compound 63] (Ac-FCI[1Nal]QDWGEHRCTGAES-NH2; disulfide 2-12) | < 100 | − (denotes lack of solubility at the given condition, as UV absorbance at 340 nm exceeds 0.1 AU and/or it is visibly turbid or contains particles.) | − (denotes lack of solubility at the given condition, as UV absorbance at 340 nm exceeds 0.1 AU and/or it is visibly turbid or contains particles.) | + (denotes solubility at the given condition, as determined by UV absorbance being less than 0.1 AU at 340 nm and the sample being clear when manually inspected.) | + (denotes solubility at the given condition, as determined by UV absorbance being less than 0.1 AU at 340 nm and the sample being clear when manually inspected.) | + (denotes solubility at the given condition, as determined by UV absorbance being less than 0.1 AU at 340 nm and the sample being clear when manually inspected.) |
